Results published in patent US8623843B2, “Antimicrobial compound and preparation thereof” (Shenzhen University, priority 2009, dated 2014).
≈ marks a conversion by molar mass, not a printed value.

What was measured:
Format in all cases: cell-based
E. coli (8099) = assay: minimum inhibitory / bactericidal concentration for E. coli
S. aureas (ATCC6538) = assay: minimum inhibitory / bactericidal concentration for S. aureas
E. coli = assay: persistent antimicrobial activity of treated glass surface, colony (plate) counting method, E. coli
Procedure: (§1) The resulting products from the above examples were used for treating a glass surface respectively, a superhydrophilic surface at a contact angle of less than 10° […]. was all obtained. In addition, they were tested for antimicrobial activity and persistent antimicrobial activity using the colony counting method, and the results are shown in table 1.

S. aureas = assay: persistent antimicrobial activity of treated glass surface, colony (plate) counting method, S. aureas; set-up: concentration or dose not given beside the values
Procedure: as §1

Row | Molecule | minimum bactericidal concentration (MBC) (E. coli (8099)) | minimum inhibitory concentration (MIC) (E. coli (8099)) | minimum bactericidal concentration (MBC) (S. aureas (ATCC6538)) | minimum inhibitory concentration (MIC) (S. aureas (ATCC6538)) | persistent antimicrobial activity (plate counting method) (E. coli; wash times 0) | persistent antimicrobial activity (plate counting method) (E. coli; wash times 1) | persistent antimicrobial activity (plate counting method) (E. coli; wash times 5) | persistent antimicrobial activity (plate counting method) (E. coli; wash times 10) | persistent antimicrobial activity (plate counting method) (E. coli; wash times 30) | persistent antimicrobial activity (plate counting method) (S. aureas; wash times 0) | persistent antimicrobial activity (plate counting method) (S. aureas; wash times 1) | persistent antimicrobial activity (plate counting method) (S. aureas; wash times 5) | persistent antimicrobial activity (plate counting method) (S. aureas; wash times 10) | persistent antimicrobial activity (plate counting method) (S. aureas; wash times 30)
1 | CCO[Si](C)(CCC[N+](C)(C)CC(=O)[O-])OCC [Embodiment 3, (CH3CH2O)2SiCH3(CH2)3^+N(CH3)2CH2CO2^−] | 25 mg/mL (≈ 90.1 mM) | 20 mg/mL (≈ 72.1 mM) | 25 mg/mL (≈ 90.1 mM) | 20 mg/mL (≈ 72.1 mM) | 99.9% | 99.8% | 99.2% | 97.9% | 97.2% | 99.9% | 99.9% | 99.5% | 98.2% | 97.6%
2 | CC[N+](CC)(CCC[Si](OC)(OC)OC)CCCS(=O)(=O)[O-] [Embodiment 5, (CH3O)3Si(CH2)3^+N(CH2CH3)2(CH2)3SO3^−] | 20 mg/mL (≈ 55.9 mM) | 15 mg/mL (≈ 42 mM) | 20 mg/mL (≈ 55.9 mM) | 15 mg/mL (≈ 42 mM) | 99.9% | 99.7% | 99.0% | 98.7% | 98.0% | 99.9% | 99.9% | 99.5% | 98.8% | 98.2%
3 | CC[N+](CC)(CCC[Si](OC)(OC)OC)CCS(=O)(=O)[O-] [Embodiment 6, (CH3O)3Si(CH2)3^+N(CH2CH3)2(CH2)2SO3^−] | 25 mg/mL (≈ 72.8 mM) | 20 mg/mL (≈ 58.2 mM) | 25 mg/mL (≈ 72.8 mM) | 20 mg/mL (≈ 58.2 mM) | 99.9% | 99.8% | 99.3% | 97.9% | 97.2% | 99.9% | 99.9% | 99.5% | 98.2% | 97.6%
4 | CCC[N+](CCC)(CCC[Si](OC)(OC)OC)CCCS(=O)(=O)[O-] [Embodiment 8, (CH3O)3Si(CH2)3^+N(CH2CH2CH3)2(CH2)3SO3^−] | 20 mg/mL (≈ 51.9 mM) | 15 mg/mL (≈ 38.9 mM) | 20 mg/mL (≈ 51.9 mM) | 15 mg/mL (≈ 38.9 mM) | 99.9% | 99.7% | 99.3% | 98.7% | 98.2% | 99.9% | 99.9% | 99.5% | 98.8% | 98.5%
5 | CCO[Si](CCC[N+](C)(C)CCCS(=O)(=O)[O-])(OCC)OCC [Embodiment 1, (CH3CH2O)3Si(CH2)3^+N(CH3)2(CH2)3SO3^−] | 20 mg/mL (≈ 53.8 mM) | 15 mg/mL (≈ 40.4 mM) | 20 mg/mL (≈ 53.8 mM) | 15 mg/mL (≈ 40.4 mM) | 99.9% | 99.8% | 99.5% | 99.0% | 99.2% | 99.9% | 99.9% | 99.6% | 99.5% | 99.0%
6 | (CH3CH2O)2SiCH3(CH2CH3)3^+N(CH3)2(CH2)3SO3^− [Embodiment 2] | 30 mg/mL | 25 mg/mL | 30 mg/mL | 25 mg/mL | 99.9% | 99.9% | 99.3% | 98.9% | 98.5% | 99.9% | 99.9% | 99.9% | 99.6% | 99.0%
7 | CO[Si](CCCNCCNCCCS(=O)(=O)O)(OC)OC [Embodiment 7, (CH3O)3Si(CH2)3NH(CH2)2^+NH2(CH2)3SO3^−] | 30 mg/mL (≈ 87.1 mM) | 25 mg/mL (≈ 72.6 mM) | 30 mg/mL (≈ 87.1 mM) | 25 mg/mL (≈ 72.6 mM) | 99.9% | 99.5% | 99.1% | 98.6% | 98.0% | 99.9% | 99.8% | 99.6% | 99.1% | 98.2%
8 | CCO[Si](C)(CCC[N+](C)(C)CCC(=O)[O-])OCC [Embodiment 4, (CH3CH2O)2SiCH3(CH2)3^+N(CH3)2(CH2)2CO2^−] | 20 mg/mL (≈ 68.6 mM) | 10 mg/mL (≈ 34.3 mM) | 20 mg/mL (≈ 68.6 mM) | 10 mg/mL (≈ 34.3 mM) | 99.9% | 99.8% | 99.0% | 98.6% | 98.1% | 99.9% | 99.9% | 99.6% | 98.9% | 98.3%
